The values that follow come from patent US7838515B2, “Formulations of quaternary ammonium neuromuscular blocking agents” (Lyotropic Therapeutics, Inc., priority 2005, dated 2010).

Data set [1] is described as follows: Shelf-life of vecuronium bromide control solutions (HPLC, 15% potency lost). The note with it: for shelf-life of solution: 1 mg/ml in water, point at which 15% of potency is lost. In kind it is physicochemical. The source says: In the Examples below, where HPLC assay results for vecuronium are reported, the following gives the parameters of the HPLC measurement. HPLC System was a Shimadzu VP Series that consists of the following components: SPD-M10A—Diode Array Detector; SIL-10AD—Autosampler; LC-10AT—Pump; SCL-10A—Controller; and Shimadzu EZ Start Version 7.2 SP 1 Revision B—Software. Chromatographic Parameters: Mobile Phase—60% Acetonitrile, 25% Methanol, 15% 0.1M TMAH (pH=6.5); Column—25 cm×4.6 mm Phenomenex Luna C18 5 μm; Wavelength—210 nm; Injection Volume—5 μL; Flow Rate—1.0 mL/min; Standard Preparation—1 mg/mL in 0.001N HCl/Methanol; and Sample Preparation—1 mg/mL—Undiluted.
In the case of vecuronium at pH 6 and 25° C., the shelf-life of just under 1 week was recorded for both a maleate-TRIS buffer and an HCl-acidified vecuronium solution.

Data set [2] in a line: Cubic phase-water partitioning of vecuronium (HPLC). The data set is classed as physicochemical. An excerpt:
It is this hydrophobic milieu that is central to the invention, in limiting the contact between water and the labile group(s) of the drug.

The next data set deals with twitch response. The conditions noted are these: 0.08 to 0.1 mg/Kg, balanced anesthesia; cited from earlier work.
For data set [3] the following is noted: cited from earlier work.
The nature of data set [4]: HPLC stability of vecuronium bromide solutions with anionic additives (Example 1). In kind it is physicochemical. On the procedure: HPLC System was a Shimadzu VP Series that consists of the following components: SPD-M10A—Diode Array Detector; SIL-10AD—Autosampler; LC-10AT—Pump; SCL-10A—Controller; and Shimadzu EZ Start Version 7.2 SP 1 Revision B—Software.
In this Example a number of anionic compounds, with various pKa's and carbon numbers, were compared for their ability to stabilize vecuronium in solution.
The following chart gives the compositions that were prepared and examined by HPLC for stability over time. Each sample contained approximately 1 mg/mL vecuronium bromide. […] All numerical entries in the chart are actual recorded weights in grams: […]

The mark [5] stands for this setting: with a charged surfactant (sodium glycocholate).
The mark [6] stands for this setting: 25° C. and 40° C. data of Example 1.

What is called pKa is the pH at which an ionisable group is half protonated.

Molecules are shown by their SMILES. Read-outs that look alike come from different tables or passages of the source.

As to `CC(=O)O[C@H]1C[C@@H]2CC[C@@H]3[C@H](CC[C@@]4(C)[C@H]3C[C@H]([N+]3(C)CCCCC3)[C@@H]4OC(C)=O)[C@@]2(C)C[C@@H]1N1CCCCC1` [Vecuronium, vecuronium bromide], the shelf-life of solution in data set [1] (pH 6.0, 4° C.) is listed as 5 weeks. Also, the shelf-life of solution in data set [1] (pH 6.0, 25° C.) is reported as 1 week. Further, the “time until potency is reduced to 85% of initial” value in data set [1] (control solution at same pH (5.2) and temperature (25° C.)) is “about 2 weeks”. Moreover, in data set [1] (pH 6, 25° C., both maleate-TRIS buffer and HCl-acidified solution), the shelf-life entry is recorded as “under 1 week”. In data set [2] (setting [5]), the “KQW (cubic-water partition coefficient)” value was 10,000, the “concentration in the aqueous phase” value came out at 1 µg/mL, the “concentration in the cubic phase” value was 10600 µg/mL and the “log KQW” value is on record as “+4”. Besides, in data set [2] (without a charged surfactant), the “KQW (cubic-water partition coefficient)” value is recorded as 1,667, the “concentration in the aqueous phase” value is 6 µg/mL, the “concentration in the cubic phase” value is 10000 µg/mL and the “log KQW” value is given as “+3.2”. Moreover, the “time to first depression of twitch response” value with twitch response is “approximately 1 minute”.
On to `O=C(O)/C=C\C(=O)O` [maleic], for which, in data set [3], the pKa is given as 3.9.
On to `CCCCCCCCCCCCCC(=O)OCC(COP(=O)(O)OCC(O)CO)OC(=O)CCCCCCCCCCCCC` (stereo not drawn) [DMPG, dimyristoylphosphatidylglycerol], for which the pKa result in data set [3] was “approx. 3.0”; in data set [3] (listed as Dimyristoyl phosphatidylglycerol), “about 3.0”.
On to `O=C1NS(=O)(=O)c2ccccc21` [saccharin], for which the “effect of the additive on vecuronium solution stability (in words)” value (from here on “effect of the additive”) in data set [4] is given as “most stable solutions”. Further, in data set [3], the pKa was 2.0.
Take `Cc1ccc(S(=O)(=O)O)cc1` [toluenesulfonic, toluenesulfonic acid]: the “effect of the additive” value in data set [4] is “most stable solutions”.
For the molecule `CCCCCCCC(=O)O` [octanoic, Octanoic acid], in data set [4] (setting [6]), the “effect of the additive” value is given as “equally bad”.
Take `O=C(O)c1cc(O)ccc1O` [gentisic, gentisic acid]: the “effect of the additive” value in data set [4] is “most stable solutions”.
Regarding `C[C@H](CCC(=O)NCC(=O)O)[C@H]1CC[C@H]2[C@@H]3[C@H](O)C[C@@H]4C[C@H](O)CC[C@]4(C)[C@H]3C[C@H](O)[C@]12C` [glycocholic, glycocholic acid], the pKa result was “approximately 3.5” in data set [3] and 3.5 in data set [3] (listed as glycocholate).
Consider `CC(=O)N[C@@H](Cc1c[nH]c2ccccc12)C(=O)O` [N-acetyltryptophan], for which the “effect of the additive” value in data set [4] (setting [6]) is on record as “performed very poorly at the higher temperature”. The pKa in data set [3] is given as 3.4.
For `O=S(=O)(O)c1ccccc1` [benzenesulfonic, benzenesulfonic acid], the “effect of the additive” value in data set [4] was “most stable solutions”.
For the molecule `C[C@H](CCC(=O)O)[C@H]1CC[C@H]2[C@@H]3CC[C@@H]4C[C@H](O)CC[C@]4(C)[C@H]3C[C@H](O)[C@]12C` [deoxycholic acid], in data set [3], the pKa result is given as “about 5.7”.
